Compound in assay [1]: COc1ccc(C2=N[C@@H](c3ccc(Cl)cc3)[C@@H](c3ccc(Cl)cc3)N2C(=O)N2CCNC(=O)C2)c(OC(C)C)c1 [NUTLIN3]
Kind of assay: area under dose-response curve of surviving fraction (unscaled, Aref=0) (surviving fraction x log10(nM)); higher = more resistant. The settings on record: exposure time: 5 days; dose range 0.5-1000 nM. The gist of the method: (§1)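 Tumour cell lines in 384-well plates were exposed for five days to eight inhibitor concentrations from 0.5 to 1000 nM. Viability was read by CellTiter-Glo luminescence, normalised to DMSO-only wells, in three screens per line. Dose-response survival curves were fitted to surviving fractions by 3-parameter logistic regression in the drc R package. Area under the curve is the unscaled activity area (Aref = 0) over log10 dose.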

Compound in assay [2]: C=CCNC1=C2C[C@@H](C)C[C@H](OC)[C@H](O)[C@@H](C)/C=C(\C)[C@H](OC(N)=O)[C@@H](OC)/C=C\C=C(/C)C(=O)NC(=CC1=O)C2=O [17-AAG]
The assay is described as above. The settings on record: exposure time: 5 days; dose range 0.5-1000 nM. In short, it runs like this:
as §1

Compound in assay [3]: COc1cccc2c1C(=O)c1c(O)c3c(c(O)c1C2=O)C[C@@](O)(C(=O)CO)C[C@@H]3O[C@H]1C[C@H](N)[C@H](O)[C@H](C)O1 [DOXORUBICIN]
Described as above. To be noted: exposure time: 5 days; dose range 0.5-1000 nM. In short, it runs like this: as §1

Compound in assay [4]: CCN(CC)CCCCNc1ncc2cc(-c3cc(OC)cc(OC)c3)c(NC(=O)NC(C)(C)C)nc2n1
Described as above. The settings on record: exposure time: 5 days; dose range 0.5-1000 nM. The gist of the method:
as §1

Compound in assay [5]: COc1cc2c(cc1O)CC[C@@H]1[C@@H]2CC[C@]2(C)[C@@H](O)CC[C@@H]12 [2-METHOXYESTRADIOL]
The assay is described as above. The settings on record: exposure time: 5 days; dose range 0.5-1000 nM. In short, it runs like this: as §1

Compound in assay [6]: CS(=O)(=O)CCNCc1ccc(-c2ccc3ncnc(Nc4ccc(OCc5cccc(F)c5)c(Cl)c4)c3c2)o1 [LAPATINIB]
The description is as above. To be noted: exposure time: 5 days; dose range 0.5-1000 nM. The gist of the method:
as §1

Compound in assay [7]: Nc1ncn([C@H]2C[C@H](O)[C@@H](CO)O2)c(=O)n1 [DECITABINE]
The description is as above. The settings on record: exposure time: 5 days; dose range 0.5-1000 nM. In short, it runs like this:
as §1

Compound in assay [8]: CS(=O)(=O)c1ccc(C(=O)Nc2ccc(Cl)c(-c3ccccn3)c2)c(Cl)c1 [VISMODEGIB]
The assay is described as above. To be noted: exposure time: 5 days; dose range 0.5-1000 nM. The gist of the method: as §1

Compound in assay [9]: T1, CN1CC[C@H](c2c(O)cc(O)c3c(=O)cc(-c4ccccc4Cl)oc23)[C@H](O)C1 [FLAVOPIRIDOL]
Described as above. The settings on record: exposure time: 5 days; dose range 0.5-1000 nM. The gist of the method:
as §1

Compound in assay [10]: O=c1[nH]cc(F)c(=O)[nH]1 [FLUOROURACIL]
The assay is described as above. To be noted: exposure time: 5 days; dose range 0.5-1000 nM. In short, it runs like this: as §1

Compound in assay [11]: CC[C@@H](C(=O)[C@@H](C)[C@@H](O)[C@H](C)[C@@H]1O[C@@H]([C@@H](CC)C(=O)O)CC[C@@H]1C)[C@H]1O[C@]2(C=C[C@@H](O)[C@]3(CC[C@@](C)([C@H]4CC[C@](O)(CC)[C@H](C)O4)O3)O2)[C@H](C)C[C@@H]1C [SALINOMYCIN]
Described as above. The settings on record: exposure time: 5 days; dose range 0.5-1000 nM. The gist of the method: as §1

Compound in assay [12]: CN(C)CC[C@H](CSc1ccccc1)Nc1ccc(S(=O)(=O)NC(=O)c2ccc(N3CCN(Cc4ccccc4-c4ccc(Cl)cc4)CC3)cc2)cc1[N+](=O)[O-] [ABT-737]
The assay is described as above. The settings on record: exposure time: 5 days; dose range 0.5-1000 nM. The gist of the method: as §1

Compound in assay [13]: T1, FLAVOPIRIDOL
Kind of assay: surviving fraction relative to DMSO-only wells; higher = less growth inhibition. To be noted: exposure time: 5 days. In short, it runs like this:
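After seeding at 250–500 cells per well in 384-well plates and a 24-hour wait, log-phase tumour cell lines were exposed without interruption for five days to inhibitors at 0.5, 1, 5, 10, 50, 100, 500 and 1000 nM. CellTiter-Glo luminescence was recorded after 10 minutes at room temperature. Viability is reported as surviving fraction, the luminescence normalised to the median of DMSO-only wells.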

± gives the standard deviation of the averaged measurements.

As for A549 LUNG, the “area under dose-response curve” value was found to be 3.26 in assay [1]; 1.64 in [2]; 2.25 in assay [3]; 3.22 in assay [4]; 3.25 in assay [5]; 3.47 in assay [6]. Also, the “area under dose-response curve” value was found to be 3.29 in [7]; 3.34 in [8]; 2.34 in assay [9]; 3.27 in assay [10]; 3.11 in [11]; 3.54 in [12]. Also, the surviving fraction stood at 1.04 ± 0.011 in [13] (0.5 nM); 1.05 ± 0.015 in assay [13] (1 nM); 1.06 ± 0.013 in [13] (5 nM); 1.05 ± 0.018 in assay [13] (10 nM); 1.18 ± 0.028 in assay [13] (50 nM); 0.379 ± 0.11 in assay [13] (100 nM). The surviving fraction in assay [13] (500 nM) turned out to be 0.0697 ± 0.0058; in assay [13] (1000 nM), 0.0687 ± 0.0038.
C33A CERVIX: the “area under dose-response curve” value stood at 3.13 in [1]; 1.46 in assay [3]; 2.88 in assay [4]; 2.91 in assay [5]; 2.92 in assay [6]; 3.03 in [7]. In addition, the “area under dose-response curve” value was determined as 3.15 in assay [8]; 2.27 in assay [9]; 3.66 in assay [10]; 2.96 in assay [11]; 3.38 in assay [12]. Moreover, the surviving fraction turned out to be 0.991 ± 0.084 in [13] (0.5 nM); 1.1 ± 0.041 in assay [13] (1 nM); 1.12 ± 0.067 in assay [13] (5 nM); 1.31 ± 0.13 in assay [13] (10 nM); 0.923 ± 0.13 in [13] (50 nM); 0.366 ± 0.011 in assay [13] (100 nM). The surviving fraction is 0.028 ± 0.0027 in assay [13] (500 nM) and 0.0277 ± 0.0072 in assay [13] (1000 nM).
With CAL51 BREAST, the “area under dose-response curve” value in assay [1] is 3.17; in [2], 1.92; in [3] it was 1.48; in assay [4], 2.86; in assay [5] it was 2.99; in assay [6], 3.37. In addition, the “area under dose-response curve” value was found to be 2.92 in assay [7]; 3.09 in assay [8]; 1.92 in assay [9]; 3.05 in [10]; 3.01 in assay [11]; 3.4 in [12]. In addition, the surviving fraction amounted to 1.02 ± 0.065 in assay [13] (0.5 nM); 0.983 ± 0.092 in assay [13] (1 nM); 1.02 ± 0.056 in [13] (5 nM); 0.877 ± 0.092 in assay [13] (10 nM); 0.528 ± 0.0091 in assay [13] (50 nM); 0.0968 ± 0.014 in assay [13] (100 nM). The values for the surviving fraction in assay [13] (500 nM) and in assay [13] (1000 nM) were 0.0297 ± 0.00058 and 0.03133 ± 0.00029, respectively.
As to CAL72 BONE, the “area under dose-response curve” value in assay [1] is 3.61; in [2], 2.63; in [3], 1.9; in assay [4], 2.46; in assay [5], 3.18; in assay [6], 3.63. Further, the “area under dose-response curve” value in assay [7] was 3.26; in [8], 3.17; in [9], 2.13; in assay [10] it was 3.25; in assay [11] it was 3.12; in assay [12], 3.52. Moreover, the surviving fraction in assay [13] (0.5 nM) was determined as 1.09 ± 0.1; in assay [13] (1 nM), 1.06 ± 0.021; in assay [13] (5 nM), 1.05 ± 0.049; in assay [13] (10 nM), 0.982 ± 0.04; in assay [13] (50 nM) it was 0.649 ± 0.053; in [13] (100 nM) it was 0.142 ± 0.053. Also, the surviving fraction stood at 0.0577 ± 0.0032 in assay [13] (500 nM) and 0.0577 ± 0.0076 in assay [13] (1000 nM).
On to CAL120 BREAST, for which the “area under dose-response curve” value is 3.14 in assay [1]; 1.76 in assay [2]; 1.87 in assay [3]; 2.73 in [4]; 3 in assay [5]; 3.34 in assay [6]. The “area under dose-response curve” value in [7] is 3.03; in assay [8] it was 3.26; in [9], 2.14; in assay [10] it was 3.16; in [11], 2.03; in [12], 3.33. In addition, the surviving fraction was 0.971 ± 0.055 in [13] (0.5 nM); 0.972 ± 0.029 in assay [13] (1 nM); 0.955 ± 0.058 in assay [13] (5 nM); 0.949 ± 0.03 in [13] (10 nM); 0.73 ± 0.034 in assay [13] (50 nM); 0.314 ± 0.051 in [13] (100 nM). Also, the surviving fraction in assay [13] (500 nM) amounted to 0.0425 ± 0.003; in [13] (1000 nM) it was 0.0403 ± 0.0016.
Take CASKI CERVIX: the “area under dose-response curve” value in assay [1] was found to be 3.23; in assay [2], 1.32; in assay [3], 0.836; in assay [4], 3.09; in [5], 3.06; in assay [6] it was 2.48. The “area under dose-response curve” value in assay [7] came to 2.1; in assay [8], 3.06; in assay [9], 1.76; in assay [10], 3.05; in assay [11] it was 2.37; in assay [12] it was 3.24. Also, the surviving fraction in [13] (0.5 nM) was determined as 0.918 ± 0.045; in [13] (1 nM), 0.969 ± 0.031; in assay [13] (5 nM) it was 0.919 ± 0.055; in assay [13] (10 nM), 0.888 ± 0.056; in [13] (50 nM), 0.284 ± 0.028; in assay [13] (100 nM), 0.0293 ± 0.0015. The figures for the surviving fraction in assay [13] (500 nM) and in assay [13] (1000 nM) were 0.022 ± 0.001 and 0.0253 ± 0.00058, respectively.
On to COLO320DM LARGE INTESTINE, for which the “area under dose-response curve” value in [1] came out at 4.13; in assay [2] it was 2.98; in [3], 3.07; in [4] it was 3.53; in assay [5] it was 2.88; in [6], 3.66. For the same test system, the “area under dose-response curve” value in assay [7] stood at 3.27; in assay [8], 3.45; in [9], 2.06; in [10], 2.87; in [11], 2.89; in assay [12] it was 3.69. For the same test system, the surviving fraction came to 1.1 ± 0.11 in [13] (0.5 nM); 1.09 ± 0.086 in assay [13] (1 nM); 1.08 ± 0.14 in assay [13] (5 nM); 1.01 ± 0.12 in assay [13] (10 nM); 0.503 ± 0.0073 in assay [13] (50 nM); 0.0807 ± 0.0055 in assay [13] (100 nM). The surviving fraction in assay [13] (500 nM) stood at 0.0493 ± 0.00076; in assay [13] (1000 nM) it was 0.0478 ± 0.0036.

The values above are taken from the supplement of paper PMC6045584.
